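Grown in 96-well plates, cells were treated for 48 hours with each compound at five concentrations. Insufficient inhibition: endpoint recorded as highest concentration tested. GI50 is the concentration that inhibits growth by half. At the TGI there is no net growth.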
Assays:
Assay in all cases: inhibition of tumour cell growth, NCI panel, 48 h
786-0 renal = system: 786-0 renal
A498 renal = system: A498 renal
A549 NSCLC = system: A549 NSCLC
ACHN renal = system: ACHN renal
BT-549 breast = system: BT-549 breast
CAKI-1 renal = system: CAKI-1 renal
CCRF-CEM leukemia = system: CCRF-CEM leukemia
COLO 205 colon = system: COLO 205 colon
DU-145 prostate = system: DU-145 prostate
EKVX NSCLC = system: EKVX NSCLC
HCC-2998 colon = system: HCC-2998 colon
HCT-116 colon = system: HCT-116 colon
HCT-15 colon = system: HCT-15 colon
HL-60(TB) leukemia = system: HL-60(TB) leukemia
HOP-62 NSCLC = system: HOP-62 NSCLC
HOP-92 NSCLC = system: HOP-92 NSCLC
HS 578T breast = system: HS 578T breast
HT29 colon = system: HT29 colon
IGROV1 ovarian = system: IGROV1 ovarian
K-562 leukemia = system: K-562 leukemia
KM12 colon = system: KM12 colon
LOX IMVI melanoma = system: LOX IMVI melanoma
M14 melanoma = system: M14 melanoma
MALME-3M melanoma = system: MALME-3M melanoma
MCF7 breast = system: MCF7 breast
MDA-MB-231 breast = system: MDA-MB-231 breast
MDA-MB-435 = system: MDA-MB-435
MOLT-4 leukemia = system: MOLT-4 leukemia
NCI-H226 lung = system: NCI-H226 lung
NCI-H23 lung = system: NCI-H23 lung
NCI-H460 lung = system: NCI-H460 lung
NCI-H522 lung = system: NCI-H522 lung
NCI/ADR-RES ovarian = system: NCI/ADR-RES ovarian
OVCAR-3 ovarian = system: OVCAR-3 ovarian
OVCAR-4 ovarian = system: OVCAR-4 ovarian
OVCAR-5 ovarian = system: OVCAR-5 ovarian
OVCAR-8 ovarian = system: OVCAR-8 ovarian
PC-3 prostate = system: PC-3 prostate
RPMI-8226 leukemia = system: RPMI-8226 leukemia
RXF 393 renal = system: RXF 393 renal
SF-268 CNS = system: SF-268 CNS
SF-295 CNS = system: SF-295 CNS
SF-539 CNS = system: SF-539 CNS
SK-MEL-2 melanoma = system: SK-MEL-2 melanoma
SK-MEL-28 melanoma = system: SK-MEL-28 melanoma
SK-MEL-5 melanoma = system: SK-MEL-5 melanoma
SK-OV-3 ovarian = system: SK-OV-3 ovarian
SN12C renal = system: SN12C renal
SNB-19 CNS = system: SNB-19 CNS
SNB-75 CNS = system: SNB-75 CNS
SR leukemia = system: SR leukemia
SW-620 colon = system: SW-620 colon
T-47D breast = system: T-47D breast
TK-10 renal = system: TK-10 renal
U251 CNS = system: U251 CNS
UACC-257 melanoma = system: UACC-257 melanoma
UACC-62 melanoma = system: UACC-62 melanoma
UO-31 renal = system: UO-31 renal

## CCCCN(CCCC)CC(O)c1ccc(OCc2ccccc2)c2ccccc12 (configuration not stated)
786-0 renal
  GI50: 2.56 µM
  TGI: 6.25 µM
A498 renal
  GI50: 3.41 µM
  TGI: 14.5 µM
A549 NSCLC
  GI50: 8.45 µM
  TGI: 22.4 µM
ACHN renal
  GI50: 4.76 µM
  TGI: 18 µM
BT-549 breast
  GI50: 5.32 µM
  TGI: 17.2 µM
CAKI-1 renal
  GI50: 1.98 µM
  TGI: 10.9 µM
CCRF-CEM leukemia
  GI50: 3.35 µM
  TGI: 16.3 µM
COLO 205 colon
  GI50: 2.98 µM
  TGI: 12.1 µM
DU-145 prostate
  GI50: 8.63 µM
  TGI: 22.6 µM
EKVX NSCLC
  GI50: 5.66 µM
  TGI: 20.2 µM
HCC-2998 colon
  GI50: 2.36 µM
  TGI: 6.34 µM
HCT-116 colon
  GI50: 2.84 µM
  TGI: 11.7 µM
HCT-15 colon
  GI50: 2.58 µM
  TGI: 7.47 µM
HL-60(TB) leukemia
  GI50: 2.51 µM
  TGI: 8.25 µM
HOP-62 NSCLC
  GI50: 5.57 µM
  TGI: 19.7 µM
HOP-92 NSCLC
  GI50: 1.87 µM
  TGI: 6.27 µM
HS 578T breast
  GI50: 4.99 µM
  TGI: 30.9 µM
HT29 colon
  GI50: 1.52 µM
  TGI: 4.55 µM
IGROV1 ovarian
  GI50: 1.96 µM
  TGI: 16.7 µM
K-562 leukemia
  GI50: 2.82 µM
  TGI: 10.4 µM
KM12 colon
  GI50: 3.4 µM
  TGI: 19.5 µM
LOX IMVI melanoma
  GI50: 1.94 µM
  TGI: 4.78 µM
M14 melanoma
  GI50: 3.13 µM
  TGI: 11.4 µM
MALME-3M melanoma
  GI50: 2.27 µM
  TGI: 7.09 µM
MCF7 breast
  GI50: 3.19 µM
  TGI: 10.9 µM
MDA-MB-231 breast
  GI50: 2.28 µM
  TGI: 7.92 µM
MDA-MB-435
  GI50: 3.17 µM
  TGI: 14 µM
MOLT-4 leukemia
  GI50: 3.54 µM
  TGI: 16.5 µM
NCI-H226 lung
  GI50: 4.03 µM
  TGI: 16.7 µM
NCI-H23 lung
  GI50: 3.01 µM
  TGI: 13 µM
NCI-H460 lung
  GI50: 3.11 µM
  TGI: 10.5 µM
NCI-H522 lung
  GI50: 1.72 µM
  TGI: 4.37 µM
NCI/ADR-RES ovarian
  GI50: 3.74 µM
  TGI: 16 µM
OVCAR-3 ovarian
  GI50: 4.9 µM
  TGI: 18.3 µM
OVCAR-4 ovarian
  GI50: 6.22 µM
  TGI: 17.4 µM
OVCAR-5 ovarian
  GI50: 3.86 µM
  TGI: 16.2 µM
OVCAR-8 ovarian
  GI50: 11 µM
  TGI: 24.4 µM
PC-3 prostate
  GI50: 2.9 µM
  TGI: 15.6 µM
RPMI-8226 leukemia
  GI50: 2.22 µM
  TGI: 5.81 µM
RXF 393 renal
  GI50: 2.39 µM
  TGI: 4.93 µM
SF-268 CNS
  GI50: 7.07 µM
  TGI: 24.2 µM
SF-295 CNS
  GI50: 3.13 µM
  TGI: 11.6 µM
SF-539 CNS
  GI50: 5.09 µM
  TGI: 17 µM
SK-MEL-2 melanoma
  GI50: 3.39 µM
  TGI: 12 µM
SK-MEL-28 melanoma
  GI50: 6.08 µM
  TGI: 18.8 µM
SK-MEL-5 melanoma
  GI50: 1.88 µM
  TGI: 3.69 µM
SK-OV-3 ovarian
  GI50: 8.31 µM
  TGI: 22.7 µM
SN12C renal
  GI50: 3.25 µM
  TGI: 14.9 µM
SNB-19 CNS
  GI50: 3.79 µM
  TGI: 16.3 µM
SNB-75 CNS
  GI50: 3.6 µM
  TGI: 15.8 µM
SR leukemia
  GI50: 2.75 µM
  TGI: 8.4 µM
SW-620 colon
  GI50: 3.32 µM
  TGI: 14.5 µM
T-47D breast
  GI50: 3.74 µM
  TGI: 14.9 µM
TK-10 renal
  GI50: 2.15 µM
  TGI: 5.24 µM
U251 CNS
  GI50: 4.88 µM
  TGI: 17.1 µM
UACC-257 melanoma
  GI50: 5.21 µM
  TGI: 17.2 µM
UACC-62 melanoma
  GI50: 2.33 µM
  TGI: 11.2 µM
UO-31 renal
  GI50: 0.974 µM
  TGI: 7.13 µM

## COc1cccc(-n2ncc3c(N/N=C/c4ccc(F)cc4)ncnc32)c1
786-0 renal
  GI50: 11.8 µM
  TGI: > 19.5 µM
A498 renal
  GI50: > 16.1 µM
  TGI: > 25 µM
A549 NSCLC
  GI50: 11.6 µM
  TGI: > 25 µM
ACHN renal
  GI50: > 25 µM
  TGI: > 25 µM
BT-549 breast
  GI50: > 25 µM
  TGI: > 25 µM
CAKI-1 renal
  GI50: > 18.7 µM
  TGI: > 25 µM
CCRF-CEM leukemia
  GI50: > 25 µM
  TGI: > 25 µM
COLO 205 colon
  GI50: > 25 µM
  TGI: > 25 µM
DU-145 prostate
  GI50: 17.4 µM
  TGI: > 25 µM
EKVX NSCLC
  GI50: > 25 µM
  TGI: > 25 µM
HCC-2998 colon
  GI50: > 25 µM
  TGI: > 25 µM
HCT-116 colon
  GI50: 10.2 µM
  TGI: > 25 µM
HCT-15 colon
  GI50: > 25 µM
  TGI: > 25 µM
HL-60(TB) leukemia
  GI50: > 25 µM
  TGI: > 25 µM
HOP-62 NSCLC
  GI50: 16.7 µM
  TGI: > 25 µM
HOP-92 NSCLC
  GI50: 6.48 µM
  TGI: 19.9 µM
HS 578T breast
  GI50: 7.51 µM
  TGI: 22.1 µM
HT29 colon
  GI50: > 25 µM
  TGI: > 25 µM
IGROV1 ovarian
  GI50: > 25 µM
  TGI: > 25 µM
K-562 leukemia
  GI50: > 25 µM
  TGI: > 25 µM
KM12 colon
  GI50: 18.4 µM
  TGI: > 25 µM
LOX IMVI melanoma
  GI50: > 25 µM
  TGI: > 25 µM
M14 melanoma
  GI50: > 23.6 µM
  TGI: > 25 µM
MALME-3M melanoma
  GI50: 11.3 µM
  TGI: > 25 µM
MCF7 breast
  GI50: > 17 µM
  TGI: > 25 µM
MDA-MB-231 breast
  GI50: 8.59 µM
  TGI: > 25 µM
MDA-MB-435
  GI50: 14.5 µM
  TGI: > 25 µM
MOLT-4 leukemia
  GI50: > 25 µM
  TGI: > 25 µM
NCI-H226 lung
  GI50: > 25 µM
  TGI: > 25 µM
NCI-H23 lung
  GI50: > 20.1 µM
  TGI: > 25 µM
NCI-H460 lung
  GI50: 10.3 µM
  TGI: 24.7 µM
NCI-H522 lung
  GI50: > 19.1 µM
  TGI: > 25 µM
NCI/ADR-RES ovarian
  GI50: 14.2 µM
  TGI: > 25 µM
OVCAR-3 ovarian
  GI50: 5.27 µM
  TGI: 10.3 µM
OVCAR-4 ovarian
  GI50: 6.55 µM
  TGI: 14.5 µM
OVCAR-5 ovarian
  GI50: > 25 µM
  TGI: > 25 µM
OVCAR-8 ovarian
  GI50: 14.8 µM
  TGI: > 25 µM
PC-3 prostate
  GI50: > 25 µM
  TGI: > 25 µM
RPMI-8226 leukemia
  GI50: > 25 µM
  TGI: > 25 µM
RXF 393 renal
  GI50: 10.6 µM
  TGI: 24.9 µM
SF-268 CNS
  GI50: > 25 µM
  TGI: > 25 µM
SF-295 CNS
  GI50: > 25 µM
  TGI: > 25 µM
SF-539 CNS
  GI50: 13.9 µM
  TGI: > 25 µM
SK-MEL-2 melanoma
  GI50: > 25 µM
  TGI: > 25 µM
SK-MEL-28 melanoma
  GI50: > 25 µM
  TGI: > 25 µM
SK-MEL-5 melanoma
  GI50: 14.7 µM
  TGI: > 25 µM
SK-OV-3 ovarian
  GI50: 13.6 µM
  TGI: > 25 µM
SN12C renal
  GI50: 23 µM
  TGI: > 25 µM
SNB-19 CNS
  GI50: 24.5 µM
  TGI: > 25 µM
SNB-75 CNS
  GI50: 5.98 µM
  TGI: > 18.6 µM
SR leukemia
  GI50: > 25 µM
  TGI: > 25 µM
SW-620 colon
  GI50: 24.3 µM
  TGI: > 25 µM
T-47D breast
  GI50: 11.6 µM
  TGI: > 25 µM
TK-10 renal
  GI50: 12.4 µM
  TGI: > 23.3 µM
U251 CNS
  GI50: 8.81 µM
  TGI: > 21.9 µM
UACC-257 melanoma
  GI50: > 25 µM
  TGI: > 25 µM
UACC-62 melanoma
  GI50: > 25 µM
  TGI: > 25 µM
UO-31 renal
  GI50: > 14.6 µM
  TGI: > 25 µM
